Reference: doi:10.1101/2025.04.25.650653, “Hierarchical small molecule inhibition of MYST acetyltransferases” (bioRxiv, 2025)
Values joined by “and” are separate entries in the source; they are usually repeats but may differ in a detail not shown here. Equal entries are not always repeated.

Legend:
H3K23Ac (KAT6A/B) = experiment: Histone biomarker bottom-up LC-MS/MS, MCF-7; format: cell-based; conditions: for Ratio, H3_18_26 K23ac: Replicates 1-3
From the text: In this approach. […] Histones are then extracted from cell pellets and chemically derivatized with propionic anhydride, digested with trypsin, subjected to a second round of propionylation, and analyzed by LC-MS/MS. Measuring the relative intensity of modified versus unmodified forms of individual histone peptides enables simultaneous monitoring of multiple potential biomarkers of MYST inhibition. To minimize false positives, we focused on abundant and reproducible modifications (average stoichiometry of greater than 1% across triplicate samples, standard deviation less than or equal to the average measurement). To account for potential histone modification crosstalk, changes in both acetylated and methylated peptides were evaluated. 38 modified peptides passed this reproducible detection threshold including several established KAT biomarkers[41] including H3K9Ac (KAT2A/B), H3K18Ac (KAT3A/B), H3K14Ac (KAT7), H3K23Ac (KAT6A/B), H4K16Ac (KAT8), and H2A.ZK4/K7Ac (KAT5; Fig. 4B).
Genetic perturbations have unambiguously determined the dependence of H3K23Ac on KAT6A/B.[9], [41] The H3K23Ac biomarker critically complements chemoproteomics by allowing sensitive assessment of KAT6A and KAT6B activity, whose active site occupancy is otherwise difficult to assess. […] This is significant since several studies have used H3K9Ac as a proxy for KAT6A/B inhibition (Table S7),[8], [42] even though its regulation is most commonly attributed to KAT2A/B.[41] Since LC-MS/MS assays require specialized equipment and technical expertise, we also validated a panel of histone acetylation antibodies that recapitulate the dose-dependent inhibition of MYST targets by western blot (Fig. 4E). […]
nuclei were pelleted by centrifugation (600 rcf, 4°C, 5 min). Pelleted nuclei were washed twice with 150 μL of detergent-free NIB buffer, followed by centrifugation (600 rcf, 4°C, 5 min) to remove all detergent.
Nuclei were then resuspended in 400 μL of 0.4 N H₂SO₄ and rotated at 4°C overnight for acid extraction of histones. The following day, samples were centrifuged (11,000 rcf, 4°C, 10 min) and the histone-containing supernatant was transferred to a fresh tube. Trichloroacetic acid (100% TCA) was added to achieve a final concentration of 20% (v/v), tubes were inverted once to mix, and histone precipitation was performed on ice for at least 3 hours or overnight at 4°C. Precipitated histones were collected by centrifugation (11,000 rcf, 4°C, 10 min) and the supernatant carefully removed, leaving a visible film of histones on the tube wall or bottom. Histone pellets were subjected to sequential washes with 1 mL of ice-cold acidified acetone (0.1% 12 N HCl) followed by 1 mL of 100% ice-cold acetone, with centrifugation (11,000 rcf, 4°C, 5 min) after each wash. Samples were air-dried at room temperature, resuspended in 40 µL of ddH₂O, and protein […]
analysis, 1-2 µg of purified histones were loaded per lane and processed according to the general immunoblotting protocol described in General Materials and Methods.
Analysis of histone modifications by LC-MS/MS
Preparation of histone samples for LC-MS/MS was performed analogously to the procedure for immunoblotting above, with the following modifications. MCF7 cells (4.2 × 106) were seeded in 15 cm dishes and treated with PF-9363 or vehicle. Experiments were performed in triplicate. Following treatment and PBS washing, cells were scraped and collected in 15 mL falcon tubes, pelleted (500 rcf, 4°C, 5 min), resuspended in 1 mL cold PBS, transferred to microcentrifuge tubes, and pelleted again before flash-freezing in liquid nitrogen for storage at -80°C. For extraction, cell pellets (~100 μL) were resuspended in NIB buffer at a 1:10 ratio, and cells were lysed with NIB buffer containing 0.2% NP-40 for 8 minutes on ice. Nuclei were pelleted at 1,000 rcf for 8 minutes and washed three times with 500 μL detergent-free NIB

BT-549 cells = experiment: NCI-60 cell line screen, sulforhodamine B growth inhibition; format: cell-based, human; conditions: BT-549, 10 and 100 μM, 48 h
From the text: As a comparator we used growth inhibition caused by treatment of cells with CPI-1612,[45], [46] a potent inhibitor of the EP300/CREBBP (KAT3A/B), widely regarded as the master regulator of protein acetylation.
Figure 6. […] (C) Dependence of breast cancer cell lines on non-MYST KATs (EP300, CREBBP), MYST KATs (KAT6A, KAT6B, KAT7, KAT8, KAT5), and a MYST KAT complex member (BRPF1) derived from on DepMap CRISPR screening data. BT-549 is highlighted in orange. Lower CERES score indicates a greater dependence of the cell line on the specified gene. […] Data is representiative of n=2 biological replicates.
(0.01, 0.1, 1, 10, 100 μM) for 48 hours and analyzed by sulforhodamine B assay for growth inhibition as previously described.12-14 o validate the NCI-60 relative activity trends using an orthogonal method, we […]
0.94, 0.47, 0.23, 0 μM) for 96 hours. Experiments were performed in quadruplicate, and cell viability was measured using CellTiter-Glo® Luminescent Cell Viability Assay (Promega, G7572) according to the manufacturer's instructions. Luminescence signals were recorded on a BioTek Synergy 2 plate reader, and results were normalized to vehicle-treated controls (set to 100%). Half-maximal inhibition values (IC₅₀) were determined from nonlinear regression analysis of dose-response curves using GraphPad Prism 9. […]

KAT7 = KAT7 (Homo sapiens, UniProt O95251); experiment: Competitive chemoproteomic profiling (H3K14-CoA affinity capture, western blot and LC-MS/MS); conditions: 0.1 μM, HeLa nuclear extracts
H4K16Ac (KAT8) = experiment: MYST KAT biomarker western blot, BT-549; format: cell-based; conditions: BT-549 cells, 24 h, near the GI50 dose
NCI-60 cell line panel = experiment: NCI-60 cell line screen, sulforhodamine B growth inhibition; format: cell-based, human; conditions: 48 h

Chain of KAT7 (O95251 whole entry): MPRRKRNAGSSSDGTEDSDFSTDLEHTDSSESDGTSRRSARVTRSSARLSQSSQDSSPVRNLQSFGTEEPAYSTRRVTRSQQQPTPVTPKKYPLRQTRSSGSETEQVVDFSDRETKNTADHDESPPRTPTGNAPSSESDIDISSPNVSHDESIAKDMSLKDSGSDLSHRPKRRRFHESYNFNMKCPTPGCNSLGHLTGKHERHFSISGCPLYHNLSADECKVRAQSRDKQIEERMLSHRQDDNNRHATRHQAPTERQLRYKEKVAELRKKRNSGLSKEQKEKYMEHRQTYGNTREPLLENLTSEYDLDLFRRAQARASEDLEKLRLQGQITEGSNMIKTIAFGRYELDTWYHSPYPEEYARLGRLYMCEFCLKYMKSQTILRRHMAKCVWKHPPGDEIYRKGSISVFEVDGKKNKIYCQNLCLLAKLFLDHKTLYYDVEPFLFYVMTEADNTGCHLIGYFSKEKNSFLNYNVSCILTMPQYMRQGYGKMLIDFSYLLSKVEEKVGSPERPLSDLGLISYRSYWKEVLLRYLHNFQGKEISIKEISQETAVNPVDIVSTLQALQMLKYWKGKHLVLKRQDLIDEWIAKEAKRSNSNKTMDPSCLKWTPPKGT

SMILES: COc1cccc(OC)c1S(=O)(=O)Nc1noc2cc(Cn3cccn3)cc(OC)c12 [PF-9363]
- reduction of H3K23Ac (H3K23Ac (KAT6A/B); 0.1 μM, 24 h, MCF-7 cells): ~ 80%
- Fold-change 0.1 v 30, H3_18_26 K23ac (H3K23Ac (KAT6A/B); KAT marker KAT6A/B, PF-9363 0.1 v 30): 7.11
- Average ratio, H3_18_26 K23ac (H3K23Ac (KAT6A/B); KAT marker KAT6A/B, PF-9363 (0.1 mM)): 0.0330
- Average ratio, H3_18_26 K23ac (H3K23Ac (KAT6A/B); KAT marker KAT6A/B, PF-9363 (30 mM)): 0.0046
- Ratio, H3_18_26 K23ac (H3K23Ac (KAT6A/B); KAT marker KAT6A/B, dose 0.1): 0.02851 and 0.03904 and 0.03134
- Ratio, H3_18_26 K23ac (H3K23Ac (KAT6A/B); KAT marker KAT6A/B, dose 1): 0.02199 and 0.02064 and 0.0179
- Ratio, H3_18_26 K23ac (H3K23Ac (KAT6A/B); KAT marker KAT6A/B, dose 10): 0.01047 and 0 and 0.009458
- Ratio, H3_18_26 K23ac (H3K23Ac (KAT6A/B); KAT marker KAT6A/B, dose 30): 0 and 0.006901 and 0.007012
- growth inhibition compared with CPI-1612 (BT-549 cells): greater growth inhibition
- co-competition of KAT7 JADE complex members (KAT7): caused co-competition of JADE2, MEAF6, and ING4/5
- inhibition of KAT8 (H4K16Ac) (H4K16Ac (KAT8)): near complete inhibiton
- GI50 (NCI-60 cell line panel; Homo sapiens, most cell lines of the NCI-60 panel, read-out: half-maximal growth inhibition (GI50)): 10 to 100 µM
- tolerance of concentrations expected to primarily effect KAT6 and KAT7 (NCI-60 cell line panel; ≤ 1 μM): generally well-tolerated
